Measurements taken from patent US20190365788A1, “CYCLIC PHOSPHATE SUBSTITUTED NUCLEOSIDE DERIVATIVES FOR THE TREATMENT OF LIVER DISEASES” (priority 2016, published 2019).
Where two headings read alike, the source gives them in different places.

Assays:
[1] = system: HepG2 cells; assay: In vitro inhibition of HepG2 cells (MTT proliferation assay); format: cell-based; settings: 72 h incubation, absorbance 570 nm, read-out: HepG2: Relative IC50
Experimental: (§1) The compounds of the invention were tested in cell based in vitro assays comprising HuH-1 cells and HepG2 cells, as in vitro models for potential hepatocellular carcinoma activity.
(§2) HuH-1 cells were purchased from JCRB, HepG2 cells from ATCC, and both tested with the following method:
(§3) Cells are suspended at a specific density in a specific culture medium. Then, 100 μl of cell suspension are plated per well in 96-well plates.
(§4) Compounds or negative controls (DMSO) are added to the cells (100 μl of a compound solution in its specific medium with a final concentration of 0.15% DMSO). Each compound concentration is tested in duplicate (6 concentrations per compound). Cells are incubated at 37° C. for 72 h without treating again.
(§5) SDS is added to control wells (final concentration of 1%) and kept for 15 min at 37° C. SDS 1% represents the positive control of proliferation inhibition. Cell supernatant is removed and 100 μl of a MTT (3-[4.5-dimethylthiazol-2-yl]-2.5-diphenyltetrazolium bromide) solution in fresh medium are added per well (MTT final concentration of 0.5 mg/ml) and incubated for 4 h at 37° C. MTT reaction is stopped and homogenized by adding 100 μl/well of SDS 10%, 0.01M HCl and incubated for 2 h at 37° C. Absorbance is measured at 570 nm.

[2] = system: HuH-1 cells; assay: In vitro inhibition of HuH-1 cells (MTT proliferation assay); format: cell-based; settings: 72 h incubation, absorbance 570 nm, read-out: HuH-1: Relative IC50
Experimental: as §1, §2, §3, §4, §5

[3] = system: Human Hepatocytes; assay: In vitro conversion of prodrug to nucleoside triphosphate (NTP) in human hepatocytes; format: in vitro ADME; settings: 1 hour at 10 μM prodrug, intracellular NTP
Experimental: The degree of conversion of a prodrug compound of the present invention to its corresponding nucleoside triphosphate (NTP) can be measured in vitro using the procedure described below.
A 2 mM stock solution of the prodrug test compound is prepared in 5% DMSO/95% MeOH to provide a final sample concentration of […]. A 5 μL aliquot is removed from this stock solution and added to 1 mL of either a rat or human cryopreserved hepatocyte sample to provide a control sample at concentration of 1 million cells/mL. This sample is assayed in triplicate and used as a test sample.
Human and rat hepatocytes are removed from liquid nitrogen storage and thawed by submerging the hepatocyte tube into a pre-heated 37° C. waterbath and gently shaking the tube back & forth until thawed. The thawed hepatocytes are then gently poured into a container of Hepatocyte Basal Medium (50 mL, pre-warmed to 37° C.) and washed. The hepatocyte tube is then rinsed out with pre-warmed Hepatocyte Basal Medium and the washed hepatocytes and rinse are combined and centrifuged at 500 rpm for 4 minutes at room temperature. The supernatant is then discarded and the resulting hepatocyte pellet is resuspended with Hepatocyte Basal Medium (pre-warmed to 37° C.) and the final hepatocyte concentration is adjusted to 1 million cells/mL to provide the final hepatocyte suspension.
A 1 mL aliquot is removed from the 1 million cells/mL final hepatocyte suspension, analyzed in triplicate and placed into 20 mL scintillation vial without a cap. 2 mM of the prodrug test sample is then added into the hepatocyte suspension to provide a 10 μM final concentration in the 1 mL hepatocyte sample. […]
The incubated hepatocyte suspension samples are transferred to a microcentrifuge tube using a transfer pipette and centrifuged at 500 rpm for 4 minutes at room temperature. […] The resulting extract solution is then stored in a refrigerator at 4° C. until ready for use, at which point the sample is first subjected to vortexing/sonication to ensure that all hepatocyte cells have burst. […]

CC(C)OC(=O)C(C)CCOP1(=O)OC[C@H]2O[C@@H](n3cc(C(F)(F)F)c(=O)[nH]c3=O)C[C@@H]2O1 (mixture of isomers) [Mixture 6A/6B, Isopropyl 4-(((2S,4aR,6R,7aS)-6-(2,4-dioxo-5-(trifluoromethyl)-3,4-dihydropyrimidin-1 (2H)-yl)-2-oxidotetrahydro-4H-furo[3,2-d][1,3,2]dioxaphosphinin-2-yl)oxy)-2-methylbutanoate and Isopropyl 4-(((2R,4aR,6R,7aS)-6-(2,4-dioxo-5-(trifluoromethyl)-3,4-dihydropyrimidin-1 (2H)-yl)-2-oxidotetrahydro-4H-furo[3,2-d][1,3,2]dioxaphosphinin-2-yl)oxy)-2-methylbutanoate]
IC50 ([1]; Homo sapiens): ≥ 5000 nM | IC50 ([2]; Homo sapiens): ≥ 5000 nM

CCOC(=O)[C@H](C)CCOP1(=O)OC[C@H]2S[C@@H](n3ccc(N)nc3=O)[C@@H](F)[C@@H]2O1 (single isomer, unassigned) [Compound 1 Diastereoisomer 1]
IC50 ([2]; Homo sapiens): < 500 nM

CC(C)OC(=O)[C@@H](C)CCO[P@@]1(=O)OC[C@H]2O[C@@H](n3cnc4c(N)nc(Cl)nc43)C[C@@H]2O1.CC(C)OC(=O)[C@@H](C)CCO[P@]1(=O)OC[C@H]2O[C@@H](n3cnc4c(N)nc(Cl)nc43)C[C@@H]2O1 (single isomer, unassigned; diastereoisomer 1) [Compound 3 Diastereoisomer 1]
IC50 [1]: < 500 nM | IC50 [2]: 500 to 5000 nM

CC(C)OC(=O)[C@H](C)CCOP1(=O)OC[C@H]2S[C@@H](n3ccc(N)nc3=O)[C@@H](F)[C@@H]2O1 (single isomer, unassigned) [Compound 2 Diastereoisomer 1]
IC50 ([2]; Homo sapiens): < 500 nM

CC(C)OC(=O)[C@H](C)CCOP1(=O)OC[C@H]2S[C@@H](n3ccc(N)nc3=O)[C@@H](F)[C@@H]2O1 (single isomer, unassigned) [Compound 2 Diastereoisomer 2]
Human Hepatocyte 1 hour at 10 μM, NTP [3]: A (A=<0.5 μM) | IC50 ([1]; Homo sapiens): 500 to 5000 nM | IC50 [2]: < 500 nM

CCOC(=O)[C@H](C)CCOP1(=O)OC[C@H]2S[C@@H](n3ccc(N)nc3=O)[C@@H](F)[C@@H]2O1 (single isomer, unassigned) [Compound 1 Diastereoisomer 2]
Human Hepatocyte 1 hour at 10 μM, NTP [3]: A (A=<0.5 μM)

CC(C)OC(=O)[C@H](C)CCOP1(=O)OC[C@H]2O[C@@H](n3ccc(NC(=O)c4ccccc4)nc3=O)C(F)(F)[C@@H]2O1 (stereo partly drawn) [Compound 10, Isopropyl (2R)-4-(((4aR,6R,7aR)-6-(4-benzamido-2-oxopyrimidin-1(2H)-yl)-7,7-difluoro-2-oxidotetrahydro-4H-furo[3,2-d][1,3,2]dioxaphosphinin-2-yl)oxy)-2-methylbutanoate]
Human Hepatocyte 1 hour at 10 μM, NTP [3]: C (C=≥1 μM)

COc1nc(N)nc2c1ncn2[C@@H]1O[C@@H]2COP(=O)(OCC[C@@H](C)C(=O)OC(C)C)O[C@H]2[C@@H]1O (mixture of isomers) [Mixture 5A/5B, Isopropyl (R)-4-(((2S,4aR,6R,7S,7aS)-6-(2-amino-6-methoxy-9H-purin-9-yl)-7-hydroxy-2-oxidotetrahydro-4H-furo[3,2-d][1,3,2]dioxaphosphinin-2-yl)oxy)-2-methylbutanoate and Isopropyl (R)-4-(((2R,4aR,6R,7S,7aS)-6-(2-amino-6-methoxy-9H-purin-9-yl)-7-hydroxy-2-oxidotetrahydro-4H-furo[3,2-d][1,3,2]dioxaphosphinin-2-yl)oxy)-2-methylbutanoate]
IC50 ([1]; Homo sapiens): ≥ 5000 nM | IC50 ([2]; Homo sapiens): ≥ 5000 nM
